Publication PMC6271376 (Molecules, 2013)

Key:
[1] = Pharmacokinetic study in rats following intravenous administration; assay type: in vivo; conditions: Sprague-Dawley, rat, plasma
Description: Male SD rats weighing from 210 to 240 g were used for the PK study. All animal experiments were performed in accordance with institutional guidelines and were approved by the University Committee on Use and Care of Animals, Shenyang Pharmaceutical University. […] Serial blood samples (0.2 mL) were obtained at 0.08, 0.17, 0.25, 0.5, 0.75, 1, 1.5, 2, 3, 4, 6, 8, 10 and 12 h after intravenous administration. All samples were placed into heparinised tubes. The rat plasma samples were centrifuged at 13,000 rpm for 10 min, and the plasma supernatant was collected. THU was added to the plasma supernatant at a final concentration of 100 µM. The plasma was frozen at −80 °C until analysis.

[2] = Stability of azacitidine in rat plasma exposed to various storage conditions; conditions: for Concentration found: n = 3
Description: The selectivity was assessed by comparing the chromatograms of six different batches of blank rat plasma with the corresponding spiked rat plasma. […] The linearity was assessed by weighted (1/x^2) least-squares analysis of six different calibration curves. The LLOQ of the assay was the lowest concentration of the analyte with the recommended precision and accuracy less than 20%. The intra- and inter-day precision (the relative standard deviation, RSD) and accuracy (the relative error, RE) were determined by the analysis of low, medium, and high QC samples (n = 6) on 3 different days. The stability of the QC samples (n = 3) in three complete freeze/thaw cycles (−80 to 20 °C), long-term sample storage (−80 °C for 30 days) and on the bench top (20 °C for 2 h) was assessed. The ready-for-injection stability of the extracted samples in the autosampler rack at 4 °C for 24 h was also evaluated. The analytes were considered stable when the accuracy bias was within ± 20% of the nominal concentration.

[3] = male SD rats, 2.5 mg/kg, mean ± SD, n = 3

half-life ([1]; male SD rats, single dose 2.5 mg/kg, mean ± SD, n = 3, read-out: t1/2β (elimination half-life) (converted)): 30.4 ± 11.9 min
Vd [1, 3]: 2.07 ± 0.17 L/kg
clearance [1, 3]: 20.9 mL/min/kg
AUC(0-inf) ([1]; male, SD rats, single dose 2.5 mg/kg): 2000 ng·h/mL
Concentration found ([2]; extracted rat plasma samples, sample rack for 24 h at 4 °C, added 20 ng/mL): 23.8 ng/mL
Concentration found ([2]; extracted rat plasma samples, sample rack for 24 h at 4 °C, added 10,000 ng/mL): 9,966.3 ng/mL
Concentration found ([2]; rat plasma, Ambient, 2 h, added 20 ng/mL): 24.0 ng/mL
Concentration found ([2]; rat plasma, Ambient, 2 h, added 10,000 ng/mL): 10,388.5 ng/mL
Stability (change in azacitidine concentrations) ([2]; rat plasma, all storage conditions of Table 3): No significant changes
Concentration found ([2]; rat plasma, three freeze–thaw cycles, added 20 ng/mL): 24.0 ng/mL
Concentration found ([2]; rat plasma, three freeze–thaw cycles, added 10,000 ng/mL): 10,073.4 ng/mL
Concentration found ([2]; rat plasma, −80 °C, 30 days, added 20 ng/mL): 24.0 ng/mL
Concentration found ([2]; rat plasma, −80 °C, 30 days, added 10,000 ng/mL): 9,519.1 ng/mL
SMILES: Nc1ncn([C@@H]2O[C@H](CO)[C@@H](O)[C@H]2O)c(=O)n1 [Azacitidine]
